IC50, solubility and half-life data for 13 compounds are collected here from US20230219965A1 (KSQ Therapeutics, Inc., priority 2020, published 2023).

Like-named read-outs stand apart in the source and are kept apart here.

Broadly, the IC50 is the concentration that inhibits the measured activity by half. Broadly, the solubility is how much of the substance goes into solution per volume. The half-life is the time in which the quantity being followed falls by half.

One data set deals with USP1/UAF1 enzyme (Homo sapiens, UniProt O94782). Briefly: USP1/UAF1 deubiquitination assay (ubiquitin-rhodamine 110 substrate). Type of data set: biochemical. Conditions: read-out: USP1 IC50 (Ub-Rho). In outline: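 Cleavage of 150 nM ubiquitin-rhodamine 110 by 0.05 nM USP1/UAF1 was followed as fluorescence (Ex480/Em540, kinetic, 30 min) in Tris-HCl pH 7.8 buffer with EDTA, BSA, DTT and Tween-20. Compounds, top 10 μM, were preincubated with enzyme 10 min; % inhibition against no-enzyme and DMSO wells gave four-parameter IC50s.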
Sequence of USP1/UAF1 enzyme (O94782 whole entry): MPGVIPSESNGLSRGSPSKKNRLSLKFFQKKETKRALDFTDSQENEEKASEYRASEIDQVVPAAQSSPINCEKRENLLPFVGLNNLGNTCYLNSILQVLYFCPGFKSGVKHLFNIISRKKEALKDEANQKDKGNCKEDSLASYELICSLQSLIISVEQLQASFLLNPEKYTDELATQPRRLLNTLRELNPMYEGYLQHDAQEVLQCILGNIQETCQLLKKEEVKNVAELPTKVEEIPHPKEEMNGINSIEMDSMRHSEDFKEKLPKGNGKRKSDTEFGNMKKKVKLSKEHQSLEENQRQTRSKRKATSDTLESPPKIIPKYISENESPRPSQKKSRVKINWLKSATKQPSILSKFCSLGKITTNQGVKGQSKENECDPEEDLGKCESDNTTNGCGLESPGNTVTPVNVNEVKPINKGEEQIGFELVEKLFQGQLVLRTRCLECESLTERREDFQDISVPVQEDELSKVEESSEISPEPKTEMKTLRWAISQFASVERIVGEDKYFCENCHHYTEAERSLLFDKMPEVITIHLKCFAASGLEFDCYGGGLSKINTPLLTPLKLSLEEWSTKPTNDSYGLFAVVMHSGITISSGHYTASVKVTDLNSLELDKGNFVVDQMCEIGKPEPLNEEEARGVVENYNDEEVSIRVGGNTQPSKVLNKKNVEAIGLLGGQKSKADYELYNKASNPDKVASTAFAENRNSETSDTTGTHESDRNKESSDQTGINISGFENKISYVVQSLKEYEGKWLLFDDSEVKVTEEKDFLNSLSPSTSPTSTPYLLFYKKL
Sequence of USP1/UAF1 enzyme (Q8TAF3 whole entry partner): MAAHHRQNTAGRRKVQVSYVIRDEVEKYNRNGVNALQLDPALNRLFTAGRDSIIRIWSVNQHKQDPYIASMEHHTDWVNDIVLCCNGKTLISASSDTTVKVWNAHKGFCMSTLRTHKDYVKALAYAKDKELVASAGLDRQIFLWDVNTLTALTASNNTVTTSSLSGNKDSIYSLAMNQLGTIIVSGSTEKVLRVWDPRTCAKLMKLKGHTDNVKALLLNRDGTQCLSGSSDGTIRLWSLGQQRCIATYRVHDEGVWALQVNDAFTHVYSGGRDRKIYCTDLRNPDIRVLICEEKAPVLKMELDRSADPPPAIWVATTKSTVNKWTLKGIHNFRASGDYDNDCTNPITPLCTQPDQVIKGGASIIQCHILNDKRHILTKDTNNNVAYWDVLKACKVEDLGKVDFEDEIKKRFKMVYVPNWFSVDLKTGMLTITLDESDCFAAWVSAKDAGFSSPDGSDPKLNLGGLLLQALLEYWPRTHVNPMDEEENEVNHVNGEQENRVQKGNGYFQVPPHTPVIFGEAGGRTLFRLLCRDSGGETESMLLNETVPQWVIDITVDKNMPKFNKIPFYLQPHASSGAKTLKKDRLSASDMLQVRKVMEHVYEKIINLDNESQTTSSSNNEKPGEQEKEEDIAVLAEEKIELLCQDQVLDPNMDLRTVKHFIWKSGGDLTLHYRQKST

Data set [1] concerns Ub-PCNA levels in the nucleus of ES2 cells (USP1 activity). As to the kind of experiment: ES2 Ub-PCNA immunofluorescence (IF) assay. It is filed as cell-based. Conditions: Homo sapiens, ES-2; ES2 cells, 3 hours, Ub-PCNA immunofluorescence; read-out: USP1 IC50 (Ub-PCNA). As to the method:
USP1 is a deubiquitinating enzyme that removes ubiquitin from mono-ubiquitinated Proliferating Cell Nuclear Antigen (Ub-PCNA). The levels of Ub-PCNA in the nucleus of cells can be used to assess the activity of USP1. An immunofluorescence assay can be established to monitor Ub-PCNA levels in the ovarian cancer cell line, ES2.
An assay can be performed by first plating 5000 ES2 cells per well in black 96 well plates (Corning #3904) and then incubating overnight at 37° C. and 5% CO2. Compounds, resuspended in DMSO, can be added to the cells, to a final DMSO concentration of 0.3%. Plates can be incubated at 37° C. and 5% CO2 for 3 hours.
Cells can be then fixed and stained by first removing the media from each plate and fixing the cells with −20° C. methanol for 5 minutes at room temperature. Fixation plates can be washed with Tris buffered saline with tween (Boston Bioproducts #IBB-855) 5 times for 5 minutes each. Plates can be blocked for 1 hour with 50 μl of Odyssey blocking buffer (Licor #327-50000) at room temperature with rocking. Block can be removed from all wells and 50 μl of primary antibody was added to each well. Ub-PCNA ab (Cell Signaling Technology #13439) can be diluted at 1:400 in Odyssey blocking buffer. Plates can be sealed and incubated overnight at 4° C. Primary antibodies can be removed from the plates and plates can be washed with Tris buffered saline with tween 5 times for 5 minutes. Plates can be stained for 1 hour at room temperature with rocking with 50 μl of secondary antibodies diluted 1:10,000 in Odyssey blocking buffer at room temperature (anti-rabbit Alexa 488). Antibodies can be removed from the plates and plates can be washed with Tris buffered saline with tween 3 times for 5 minutes. Plates can be washed once with DAPI (Chemometec #910-3012) stain diluted 1:5000 (Stock solution of 500 μg/ml) in tris buffered saline with tween for 5 minutes. DAPI stain can be removed and plates can be washed one additional time for 5 minutes with tris buffered saline with tween. Wash can be removed from the plate and 100 μl tris buffered saline with tween can be added back to all wells, Plates can be sealed with Foil seals or black plate seals and plates can be stored at 4° C. until they can be imaged.
Imaging of the plates can be performed by first locating the nuclei using the DAPI stain. A mask can be created by drawing a circle slightly smaller than each nucleus. Ub-PCNA intensities can be measured for each individual nucleus counted. A histogram of all Ub-PCNA nuclear intensities measured in untreated wells can be generated and a 95% cutoff can be established. This 95% cutoff can be used to determine the number of Positive cells that have Ub-PCNA values higher than the 95% cutoff. The number of positive cells can be expressed as a percentage by dividing by the total number of cells in the well. This percent positive value can be used to graph all data and to determine AC50 values.
USP1 is a deubiquitinating enzyme that removes ubiquitin from mono-ubiquitinated
Proliferating Cell Nuclear Antigen (Ub-PCNA). The levels of Ub-PCNA in the nucleus of cells was used to assess the activity of USP1. An immunofluorescence assay was established to monitor Ub-PCNA levels in the ovarian cancer cell line, ES2.
This assay was performed by first plating 5000 ES2 cells per well in black 96 well plates (Corning #3904) and then incubated overnight at 37° C. and 5% CO2. Compounds, resuspended in DMSO, were added to the cells, to a final DMSO concentration of 0.3%. Plates were incubated at 37° C. and 5% CO2 for 3 hours.
Cells were then fixed and stained by first removing the media from each plate and fixing the cells with −20° C. methanol for 5 minutes at room temperature. Following fixation plates were washed with Tris buffered saline with tween (Boston Bioproducts ABB-855) 5 times for 5 minutes each. Plates were blocked for 1 hour with 50μ.1 of Odyssey blocking buffer (Licor #327-50000) at room temperature with rocking. […]

Data set [2] can be described thus: ADME solubility determination in PBS at pH 2.0 and pH 7.4. Type of data set: physicochemical. Conditions: phosphate buffered saline, 25 °C, thermodynamic from solid. The essentials: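 Solubility was read by LC-MS/MS on centrifuged supernatants, calibrated to a known-concentration standard and corrected for dilution. Compound, dried down from 10 mM DMSO stock, was equilibrated 24 h at 25° C with shaking in PBS at pH 2.0 or pH 7.4.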

Data set [3] can be described thus: Liver microsomal metabolic stability, rat liver microsomes (RLM). Conditions: rat, liver microsomes, t1/2 (min) in RLM, 1 μM compound, 1 mg/mL microsomes, NADPH. (Liver microsomes are a subcellular fraction often used to study metabolism.)
Data set [4] can be described thus: Liver microsomal metabolic stability, human liver microsomes (HLM). The settings on record: human, liver microsomes.
Description: Samples were prepared by adding 222.5 μL of a master solution (100 mM phosphate buffer and 1 mg/mL liver microsomes (HLM or RLM)) and 25 μL of a 10 mM NADPH solution to incubation plates, which were then warmed for 10 min. Each compound was separately dissolved in DMSO to prepare 10 mM stock solutions, which were then diluted to 100 μM with acetonitrile. A reaction was started by adding 2.5 μL of the 100 μM solution of each compound to separate incubation plates such that the final concentration of for each compound in each plate was 1 μM.
25 μL aliquots of each sample were taken at 0.5, 5, 10, 15, 20 and 30 minutes, and the reaction was stopped by adding 5 volumes of cold acetonitrile with IS (100 nM alprazolam, 200 nM caffeine and 100 nM tolbutamide). The samples were then centrifuged at 3,220 G for 30 minutes, and 100 μL of the supernatant fluid was mixed with 100 μL of ultra-pure H2O.
The samples were then analyzed by LC-MS/MS. Peak areas were determined from extracted ion chromatograms. Slope values (k) were determined by linear regression of the natural logarithm of the remaining percentage of the compound vs. incubation time curve. The in vitro half-life (in vitro t1/2) was determined from the slope value using the following equation:
Where [5] appears, read: pH 2, aqueous buffer, PBS pH 2.0, 25° C., read-out: Solubility at pH 2.0.
Setting [6] is: pH 7.4, aqueous buffer, PBS pH 7.4, 25° C., read-out: Solubility at pH 7.4.

For the compound `CC(C)n1ncc(Cl)c1-c1cc2n(n1)CCC(=O)N2Cc1ccc(-c2nc(C(F)(F)F)cn2C)c(F)c1` [Example 16, 2-(4-chloro-1-isopropyl-1H-pyrazol-5-yl)-4-(3-fluoro-4-(1-methyl-4-(trifluoromethyl)-1H-imidazol-2-yl)benzyl)-6,7-dihydropyrazolo[1,5-a]pyrimidin-5(4H)-one], the IC50 (on USP1/UAF1 enzyme; in data set [1]) was < 100 nM in each case. Besides, the solubility at 24 h in data set [2] (setting [5]) and in data set [2] (setting [6]) was < 10 µM throughout. For the same compound, the figures for the half-life at 1 μM in data set [3] and in data set [4] were < 25 min and > 25 min, respectively.

Consider `COc1ncnc(C2CC2)c1-c1cc2n(n1)CCC(=O)N2Cc1ccc(-c2nc(C(F)(F)F)cn2C(C)C)c(F)c1` [Example 18, 2-(4-cyclopropyl-6-methoxypyrimidin-5-yl)-4-(3-fluoro-4-(1-isopropyl-4-(trifluoromethyl)-1H-imidazol-2-yl)benzyl)-6,7-dihydropyrazolo[1,5-a]pyrimidin-5(4H)-one], for which the IC50 (on USP1/UAF1 enzyme; in data set [1]) was < 100 nM throughout. Besides, the solubility at 24 h in data set [2] (setting [5]) and in data set [2] (setting [6]) was < 10 µM each time. For the same compound, the half-life at 1 μM in data set [3] and in data set [4] was > 25 min in each case.

Turning to `CC(C)n1cc(C(F)(F)F)nc1-c1ccc(CN2C(=O)CCn3nc(-c4c(Cl)cnn4C(C)C)cc32)cc1F` [Example 20, 2-(4-chloro-1-isopropyl-1H-pyrazol-5-yl)-4-(3-fluoro-4-(1-isopropyl-4-(trifluoromethyl)-1H-imidazol-2-yl)benzyl)-6,7-dihydropyrazolo[1,5-a]pyrimidin-5(4H)-one], the IC50 (on USP1/UAF1 enzyme; in data set [1]) was < 100 nM throughout. For the same compound, the solubility at 24 h in data set [2] (setting [5]) and in data set [2] (setting [6]) was < 10 µM throughout. For the same compound, the half-life at 1 μM in data set [3] and in data set [4] was > 25 min each time.

For the compound `COc1ncnc(C2CCC2)c1-c1cc2n(n1)CCC(=O)N2Cc1ccc(-c2nc(C(F)(F)F)cn2C)c(F)c1` [Example 22], the IC50 (at USP1/UAF1 enzyme; in data set [1]) was < 100 nM throughout. In addition, the results for the solubility at 24 h in data set [2] (setting [5]) and in data set [2] (setting [6]) were ≥ 10 µM and < 10 µM, respectively. Also, the half-life at 1 μM in data set [3] and in data set [4] was < 25 min each time.

In the case of `COc1ncnc(C2CC2)c1-c1cc2n(n1)CCCN2Cc1ccc(-c2nc(C(F)(F)F)cn2C)cc1` [Example 24, 2-(4-cyclopropyl-6-methoxypyrimidin-5-yl)-4-(4-(1-methyl-4-(trifluoromethyl)-1H-imidazol-2-yl)benzyl)-4,5,6,7-tetrahydropyrazolo[1,5-α]pyrimidine], the IC50 (on USP1/UAF1 enzyme; in data set [1]) was < 100 nM each time. For the same compound, the solubility at 24 h in data set [2] (setting [5]) and in data set [2] (setting [6]) was ≥ 10 µM in each case. Further, the half-life at 1 μM in data set [3] and in data set [4] was < 25 min throughout.

For `COc1ncnc(C)c1-c1cc2n(n1)CCCN2Cc1ccc(-c2nc(C(F)(F)F)cn2C)cc1` [Example 25], the IC50 was 100 to 500 nM at USP1/UAF1 enzyme and > 500 nM in data set [1]. Further, the solubility at 24 h in data set [2] (setting [5]) and in data set [2] (setting [6]) was ≥ 10 µM each time. For the same compound, the half-life at 1 μM in data set [3] and in data set [4] was < 25 min each time.

Take `COc1ncnc(C2CC2)c1-c1cc2n(n1)CCCN2Cc1ccc(-n2nc(C(F)(F)F)cc2C)cc1` [Example 27]: the concentration for half-maximal inhibition (IC50) (at USP1/UAF1 enzyme; in data set [1]) was < 100 nM in each case. For the same compound, the values for the solubility at 24 h in data set [2] (setting [5]) and in data set [2] (setting [6]) were ≥ 10 µM and < 10 µM, respectively. The half-life at 1 μM in data set [3] and in data set [4] was < 25 min each time.

With `CCn1cc(C(F)(F)F)nc1-c1ccc(CN2CC3(CC3)Cn3nc(-c4c(OC)ncnc4C4CC4)cc32)cc1F` [Example 30], the 50% inhibitory concentration (IC50) (at USP1/UAF1 enzyme; in data set [1]) was < 100 nM each time. Besides, the solubility at 24 h in data set [2] (setting [5]) was ≥ 10 µM; in data set [2] (setting [6]), < 10 µM. In addition, the half-life at 1 μM in data set [3] and in data set [4] was < 25 min in each case.

As to `COc1ncnc(C2CC2)c1-c1nn2c(c1Cl)N(Cc1ccc(-c3nc(C(F)(F)F)cn3C)cc1)C(=O)CC2` [Example 33, 3-chloro-2-(4-cyclopropyl-6-methoxypyrimidin-5-yl)-4-(4-(1-methyl-4-(trifluoromethyl)-1H-imidazol-2-yl)benzyl)-6,7-dihydropyrazolo[1,5-α]pyrimidin-5(4H)-one], the IC50 (on USP1/UAF1 enzyme; in data set [1]) was < 100 nM each time. Further, the solubility at 24 h in data set [2] (setting [5]) and in data set [2] (setting [6]) was < 10 µM throughout. Further, the half-life at 1 μM in data set [3] and in data set [4] was > 25 min in each case.

As for `COc1ncnc(C2CC2)c1-c1nn2c(c1C)N(Cc1ccc(-c3nc(C(F)(F)F)cn3C)cc1)C(=O)CC2` [Example 35, 2-(4-cyclopropyl-6-methoxypyrimidin-5-yl)-3-methyl-4-(4-(1-methyl-4-(trifluoromethyl)-1H-imidazol-2-yl)benzyl)-6,7-dihydropyrazolo[1,5-α]pyrimidin-5(4H)-one], the figures for the IC50 (at USP1/UAF1 enzyme; in data set [1]) were 100 to 500 nM and > 500 nM, respectively. For the same compound, the solubility at 24 h in data set [2] (setting [5]) and in data set [2] (setting [6]) was < 10 µM throughout. For the same compound, the half-life at 1 μM in data set [3] is > 25 min; in data set [4] it was < 25 min.

For `Cc1cnn(C(C)C)c1-c1nc2n(n1)CCC(=O)N2Cc1ccc(-c2nc(C(F)(F)F)cn2C)cc1` [Example 37, 2-(1-isopropyl-4-methyl-1H-pyrazol-5-yl)-4-(4-(1-methyl-4-(trifluoromethyl)-1H-imidazol-2-yl)benzyl)-6,7-dihydro-[1,2,4]triazolo[1,5-α]pyrimidin-5(4H)-one], the IC50 (on USP1/UAF1 enzyme; in data set [1]) was < 100 nM each time. The solubility at 24 h in data set [2] (setting [5]) and in data set [2] (setting [6]) was < 10 µM each time. For the same compound, the half-life at 1 μM in data set [3] and in data set [4] was < 25 min each time.

Take `Cc1cnn(C(C)C)c1-c1nc2n(n1)CCC(=O)N2Cc1ccc(-c2nc(C(F)(F)F)cn2C(C)C)cc1` [Example 38]: the IC50 (at USP1/UAF1 enzyme; in data set [1]) was < 100 nM throughout. Also, the solubility at 24 h in data set [2] (setting [5]) and in data set [2] (setting [6]) was < 10 µM in each case. In addition, the half-life at 1 μM in data set [3] and in data set [4] was < 25 min throughout.

Take `CC(C)n1ncc(Cl)c1-c1nc2n(n1)CCC(=O)N2Cc1ccc(-c2nc(C(F)(F)F)cn2C)cc1` [Example 39]: the IC50 (at USP1/UAF1 enzyme; in data set [1]) was < 100 nM throughout. The solubility at 24 h in data set [2] (setting [5]) and in data set [2] (setting [6]) was < 10 µM each time. The half-life at 1 μM in data set [3] and in data set [4] was > 25 min in each case.
